Measured values from patent US9102623B2, “Pyridinecarboxamides, useful-plant-protecting composition comprising them and processes for their preparation and their use” (Bayer Cropscience AG, priority 2007, dated 2015).

tested on: barley; assay: Post-emergence safener action in barley with the herbicide mesosulfuron-methyl; type: in vivo; details: greenhouse, visual scoring of damage
Source text: (§1) The damage to the plants is scored visually using a scale of 0-100%, in comparison to control plants:
(§2) 0%=no noticeable effect compared to the untreated plant
(§3) 100%=the treated plants dies.
(§4) Seeds or rhizome pieces of monocotyledonous and dicotyledonous harmful plants and crop plants are placed in sandy loam soil in plastic pots, covered with soil and cultivated in the greenhouse under good growth conditions. Alternatively, harmful plants encountered in paddy rice cultivation are cultivated in pots in which the surface of the soil is covered by up to 2 cm of water. Three weeks after sowing, the test plants are treated at the three-leaf stage. The herbicide/safener active compound combinations according to the invention, formulated as emulsion concentrates, and in parallel tests the individual active compounds formulated in a corresponding manner, are sprayed at various dosages at a water application rate of […] (converted) onto the green parts of the plants, and, after the test plants were left to stand in the greenhouse for about 2 to 3 weeks under optimum growth conditions, the effect of the preparations is scored visually in comparison to untreated controls. In the case of rice or harmful plants encountered in the cultivation of rice, the active compounds are also added directly to the irrigation water (application analogously to the so-called granule application) or sprayed onto the plants and into the irrigation water. […]

Row | SMILES | safener action for the herbicide mesosulfuron-methyl
1 | COCCNC(=O)c1ccc(C(F)(F)F)[nH]c1=O [Compound 57] | good safener action
2 | CC(C)(C)CNC(=O)c1ccc(C(F)(F)Cl)[nH]c1=O [Compound 138] | good safener action
3 | CC(C)N(C)C(=O)c1ccc(C(F)(F)F)[nH]c1=O [Compound 13] | good safener action
4 | O=C(NC1CC1)c1ccc(C(F)(F)F)[nH]c1=O [Compound 5] | good safener action
5 | O=C(NCC(F)(F)C(F)(F)F)c1ccc(C(F)(F)F)[nH]c1=O [Compound 25] | good safener action
6 | CCC(CC)NC(=O)c1cc(I)c(C(F)(F)Cl)[nH]c1=O [Compound 1907, 6-[Chloro(difluoro)methyl]-N-(1-ethylpropyl)-5-iodo-2-oxo-1,2-dihydropyridine-3-carboxamide] | good safener action
7 | CNC(=O)c1ccc(C(F)(F)C(F)(F)F)[nH]c1=O [Compound 342] | good safener action
8 | CCC(CC)NC(=O)c1ccc(C(F)(F)Cl)[nH]c1=O [Compound 165] | good safener action
9 | CNC(=O)c1ccc(C(F)(F)Cl)[nH]c1=O [Compound 115] | good safener action
10 | CCNC(=O)c1ccc(C(F)(F)Cl)[nH]c1=O [Compound 116] | good safener action
11 | CCC(C)NC(=O)c1ccc(C(F)(F)C(F)(F)F)[nH]c1=O (centres unmarked) [Compound 382, N-(1-Methylpropyl)-2-oxo-6-(pentafluoroethyl)-1,2-dihydropyridine-3-carboxamide] | good safener action
12 | CCC(C)NC(=O)c1cc(Br)c(C(F)(F)F)[nH]c1=O (centres unmarked) [Compound 950] | good safener action
13 | O=C(NCC(F)(F)F)c1ccc(C(F)(F)F)[nH]c1=O [Compound 26] | good safener action
14 | NC(=O)c1cc(Cl)c(C(F)(F)F)[nH]c1=O [Compound 455, 5-Chloro-2-oxo-6-(trifluoromethyl)-1,2-dihydropyridine-3-carboxamide] | good safener action
15 | COC(CNC(=O)c1ccc(C(F)(F)Cl)[nH]c1=O)OC [Compound 168] | good safener action
16 | COCCNC(=O)c1ccc(C(F)(F)Cl)[nH]c1=O [Compound 171, 6-[Chloro(difluoro)methyl]-N-(2-methoxyethyl)-2-oxo-1,2-dihydropyridine-3-carboxamide] | good safener action
17 | CCCNC(=O)c1ccc(C(F)(F)F)[nH]c1=O [Compound 3] | good safener action
18 | CCCNC(=O)c1ccc(C(F)(F)Cl)[nH]c1=O [Compound 117] | good safener action
19 | CCCNC(=O)c1ccc(C(F)(F)C(F)(F)F)[nH]c1=O [Compound 344] | good safener action
20 | C#CCN(C)C(=O)c1ccc(C(F)(F)F)[nH]c1=O [Compound 40] | good safener action
21 | O=C(NC1CCC1)c1ccc(C(F)(F)F)[nH]c1=O [Compound 7, N-Cyclobutyl-2-oxo-6-(trifluoromethyl)-1,2-dihydropyridine-3-carboxamide] | good safener action
22 | CCN(C)C(=O)c1ccc(C(F)(F)Cl)[nH]c1=O [Compound 124] | good safener action
23 | CCN(CC)C(=O)c1ccc(C(F)(F)Cl)[nH]c1=O [Compound 128] | good safener action
24 | CCCC(C)NC(=O)c1ccc(C(F)(F)Cl)[nH]c1=O (centres unmarked) [Compound 157] | good safener action

Row | SMILES | safener action for the herbicide mesosulfuron-methyl
25 | CCCCNC(=O)c1ccc(C(F)(F)C(F)(F)Cl)[nH]c1=O [Compound 1487] | good safener action
26 | O=C(NCC1CC1)c1ccc(C(F)(F)Cl)[nH]c1=O [Compound 136] | good safener action
27 | O=C(NC1CC1)c1ccc(C(F)(F)Cl)[nH]c1=O [Compound 119] | good safener action
28 | C#CCN(C)C(=O)c1ccc(C(F)(F)Cl)[nH]c1=O [Compound 154] | good safener action
29 | COCCNC(=O)c1ccc(C(F)(F)C(F)(F)F)[nH]c1=O [Compound 398] | good safener action
30 | O=C(NCC1CC1)c1ccc(C(F)(F)F)[nH]c1=O [Compound 22] | good safener action
31 | CCN(C(=O)c1ccc(C(F)(F)Cl)[nH]c1=O)C(C)C [Compound 130] | good safener action
32 | O=C(NC1CCC1)c1cc(Br)c(C(F)(F)Cl)[nH]c1=O [Compound 1030] | good safener action
33 | COCCCNC(=O)c1ccc(C(F)(F)C(F)(F)F)[nH]c1=O [Compound 407] | good safener action
34 | CCCCNC(=O)c1cc(Br)c(C(F)(F)Cl)[nH]c1=O [Compound 1029] | good safener action
35 | O=C(NC1CC1)c1ccc(C(F)(F)C(F)(F)F)[nH]c1=O [Compound 346] | good safener action
36 | NC(=O)c1cc(Br)c(C(F)(F)Cl)[nH]c1=O [Compound 1023] | good safener action
37 | CCCC(C)NC(=O)c1ccc(C(F)(F)C(F)(F)F)[nH]c1=O (centres unmarked) [Compound 384] | good safener action
38 | CNC(=O)c1cc(Br)c(C(F)(F)F)[nH]c1=O [Compound 910] | good safener action
39 | COCC(C)NC(=O)c1ccc(C(F)(F)C(F)(F)F)[nH]c1=O (centres unmarked) [Compound 405] | good safener action
40 | NC(=O)c1ccc(C(F)(F)C(F)(F)Cl)[nH]c1=O [Compound 1481, 6-(2-Chloro-1,1,2,2-tetrafluoroethyl)-2-oxo-1,2-dihydropyridine-3-carboxamide] | good safener action
41 | CC(C)CNC(=O)c1ccc(C(F)(F)F)[nH]c1=O [Compound 30] | good safener action
42 | CN(C)C(=O)c1ccc(C(F)(F)Cl)[nH]c1=O [Compound 123] | good safener action
43 | CCCCCNC(=O)c1ccc(C(F)(F)Cl)[nH]c1=O [Compound 134] | good safener action
44 | CC(C)C(C)NC(=O)c1ccc(C(F)(F)Cl)[nH]c1=O (centres unmarked) [Compound 163] | good safener action
45 | COCC(C)NC(=O)c1cc(Br)c(C(F)F)[nH]c1=O (centres unmarked) [Compound 1201, 5-Bromo-6-(difluoromethyl)-N-(2-methoxy-1-methylethyl)-2-oxo-1,2-dihydropyridine-3-carboxamide] | good safener action
46 | CNC(=O)c1ccc(C(F)(F)F)[nH]c1=O [Compound 1] | good safener action
47 | CCNC(=O)c1cc(Cl)c(C(F)(F)Cl)[nH]c1=O [Compound 571] | good safener action

tested on: corn; assay: Post-emergence safener action in corn with the herbicide tembotrione; type: in vivo; details: greenhouse, visual scoring of damage
Source text: as §1, §2, §3, §4

Row | SMILES | safener action for the herbicide tembotrione
48 | CNC(=O)c1ccc(C(F)(F)C(F)(F)C(F)(F)F)[nH]c1=O [Compound 1596] | good safener action
49 | CCNC(=O)c1cc(Br)c(C(F)F)[nH]c1=O [Compound 1139] | good safener action
50 | CCC(CC)NC(=O)c1ccc(C(F)(F)C(F)(F)C(F)(F)F)[nH]c1=O [Compound 1646] | good safener action
51 | O=C(NCc1ccc(Cl)nc1)c1ccc(C(F)(F)F)[nH]c1=O [Compound 95] | good safener action
52 | CCCC(C)NC(=O)c1ccc(C(F)(F)C(F)(F)C(F)(F)F)[nH]c1=O (centres unmarked) [Compound 1638] | good safener action
53 | CC(NC(=O)c1ccc(C(F)(F)Cl)[nH]c1=O)c1ccccc1 (centres unmarked) [Compound 210] | good safener action
54 | COC(=O)CNC(=O)c1ccc(C(F)(F)F)[nH]c1=O [Compound 71] | good safener action
55 | CC(C)CCNC(=O)c1ccc(C(F)(F)F)[nH]c1=O [Compound 32] | good safener action
56 | O=C(NC1CCC1)c1ccc(C(F)(F)C(F)(F)Cl)[nH]c1=O [Compound 1488] | good safener action
57 | CCC(CC)NC(=O)c1ccc(C(F)(F)F)[nH]c1=O [Compound 51] | good safener action
58 | CC(C)(C)CNC(=O)c1ccc(C(F)(F)F)[nH]c1=O [Compound 24] | good safener action
59 | C=CCNC(=O)c1ccc(C(F)(F)C(F)(F)C(F)(F)F)[nH]c1=O [Compound 1629] | good safener action
60 | CC(C)NC(=O)c1ccc(C(F)(F)C(F)F)[nH]c1=O [Compound 1371] | good safener action
61 | CC(C)NC(=O)c1ccc(C(F)(F)F)[nH]c1=O [Compound 4] | good safener action
62 | CNC(=O)c1cc(Cl)c(C(F)(F)F)[nH]c1=O [Compound 456] | good safener action
